{"source": "ChEMBL document CHEMBL1201862", "about": "“PubChem BioAssay data set” (2004)", "experiment_in_all_cases": "inhibition of tumour cell growth, NCI panel, 48 h", "key": {"[1]": {"tested_on": "SF-295"}, "[2]": {"tested_on": "UACC-62"}, "[3]": {"tested_on": "SF-268"}, "[4]": {"tested_on": "Malme-3M"}, "[5]": {"tested_on": "SNB-19"}, "[6]": {"tested_on": "OVCAR-5"}, "[7]": {"tested_on": "M14"}, "[8]": {"tested_on": "RPMI-8226"}, "[9]": {"tested_on": "K562"}, "[10]": {"tested_on": "786-0"}, "[11]": {"tested_on": "SN12C"}, "[12]": {"tested_on": "NCI-H522"}, "[13]": {"tested_on": "IGROV-1"}, "[14]": {"tested_on": "HOP-62"}, "[15]": {"tested_on": "Hs-578T"}, "[16]": {"tested_on": "CAKI-1"}, "[17]": {"tested_on": "HCT-116"}, "[18]": {"tested_on": "UO-31"}, "[19]": {"tested_on": "MDA-MB-435"}, "[20]": {"tested_on": "SR"}, "[21]": {"tested_on": "HT-29"}, "[22]": {"tested_on": "MCF7"}, "[23]": {"tested_on": "HL-60"}, "[24]": {"tested_on": "MDA-N"}, "[25]": {"tested_on": "MDA-MB-231"}, "[26]": {"tested_on": "ACHN"}, "[27]": {"tested_on": "OVCAR-8"}, "[28]": {"tested_on": "UACC-257"}, "[29]": {"tested_on": "OVCAR-4"}, "[30]": {"tested_on": "MOLT-4"}, "[31]": {"tested_on": "U-251"}, "[32]": {"tested_on": "CCRF-CEM"}, "[33]": {"tested_on": "NCI/ADR-RES"}, "[34]": {"tested_on": "COLO 205"}, "[35]": {"tested_on": "T47D"}, "[36]": {"tested_on": "RXF 393"}, "[37]": {"tested_on": "SK-OV-3"}, "[38]": {"tested_on": "HCT-15"}, "[39]": {"tested_on": "NCI-H226"}, "[40]": {"tested_on": "LOX IMVI"}, "[41]": {"tested_on": "SF-539"}, "[42]": {"tested_on": "A549"}, "[43]": {"tested_on": "OVCAR-3"}, "[44]": {"tested_on": "EKVX"}, "[45]": {"tested_on": "HCC 2998"}, "[46]": {"tested_on": "DU-145"}, "[47]": {"tested_on": "PC-3"}, "[48]": {"tested_on": "SK-MEL-28"}, "[49]": {"tested_on": "SK-MEL-5"}, "[50]": {"tested_on": "SW-620"}, "[51]": {"tested_on": "SNB-75"}, "[52]": {"tested_on": "NCI-H460"}}, "note": "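Following 48 hours of exposure in 96-well plates, responses at five concentrations were used to interpolate endpoints linearly. GI50 marks 50% less growth.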 The source made the active and inactive calls. No stated cut-off is given here; in the data, active = GI50 up to about 1.1 µM and inactive = higher."}
{"smiles": "[N-]=[N+]=NC1CC(n2ccc(N)nc2=O)OC1COP(=O)(O)OP(=O)(O)OP(=O)(O)O", "note": "(configuration not stated)", "values": [{"measurement": "GI50", "setting": "[1]", "value": "> 100 µM (inactive)"}, {"measurement": "GI50", "setting": "[2]", "value": "> 100 µM (inactive)"}, {"measurement": "GI50", "setting": "[3]", "value": "> 100 µM (inactive)"}, {"measurement": "GI50", "setting": "[4]", "value": "> 100 µM (inactive)"}, {"measurement": "GI50", "setting": "[5]", "value": "> 100 µM (inactive)"}, {"measurement": "GI50", "setting": "[6]", "value": "> 100 µM (inactive)"}, {"measurement": "GI50", "setting": "[7]", "value": "> 100 µM (inactive)"}, {"measurement": "GI50", "setting": "[8]", "value": "> 100 µM (inactive)"}, {"measurement": "GI50", "setting": "[9]", "value": "> 100 µM (inactive)"}, {"measurement": "GI50", "setting": "[10]", "value": "> 100 µM (inactive)"}, {"measurement": "GI50", "setting": "[11]", "value": "> 100 µM (inactive)"}, {"measurement": "GI50", "setting": "[12]", "value": "> 100 µM (inactive)"}, {"measurement": "GI50", "setting": "[13]", "value": "> 100 µM (inactive)"}, {"measurement": "GI50", "setting": "[14]", "value": "> 100 µM (inactive)"}, {"measurement": "GI50", "setting": "[15]", "value": "> 100 µM (inactive)"}, {"measurement": "GI50", "setting": "[16]", "value": "> 100 µM (inactive)"}, {"measurement": "GI50", "setting": "[17]", "value": "> 100 µM (inactive)"}, {"measurement": "GI50", "setting": "[18]", "value": "> 100 µM (inactive)"}, {"measurement": "GI50", "setting": "[19]", "value": "> 100 µM (inactive)"}, {"measurement": "GI50", "setting": "[20]", "value": "> 100 µM (inactive)"}, {"measurement": "GI50", "setting": "[21]", "value": "> 100 µM (inactive)"}, {"measurement": "GI50", "setting": "[22]", "value": "> 100 µM (inactive)"}, {"measurement": "GI50", "setting": "[23]", "value": "> 100 µM (inactive)"}, {"measurement": "GI50", "setting": "[24]", "value": "> 100 µM (inactive)"}, {"measurement": "GI50", "setting": "[25]", "value": "> 100 µM (inactive)"}, {"measurement": "GI50", "setting": "[26]", "value": "> 100 µM (inactive)"}, {"measurement": "GI50", "setting": "[27]", "value": "> 100 µM (inactive)"}, {"measurement": "GI50", "setting": "[28]", "value": "> 100 µM (inactive)"}, {"measurement": "GI50", "setting": "[29]", "value": "> 100 µM (inactive)"}, {"measurement": "GI50", "setting": "[30]", "value": "> 100 µM (inactive)"}, {"measurement": "GI50", "setting": "[31]", "value": "> 100 µM (inactive)"}, {"measurement": "GI50", "setting": "[32]", "value": "> 100 µM (inactive)"}, {"measurement": "GI50", "setting": "[33]", "value": "> 100 µM (inactive)"}, {"measurement": "GI50", "setting": "[34]", "value": "> 100 µM (inactive)"}, {"measurement": "GI50", "setting": "[35]", "value": "> 100 µM (inactive)"}, {"measurement": "GI50", "setting": "[36]", "value": "> 100 µM (inactive)"}, {"measurement": "GI50", "setting": "[37]", "value": "> 100 µM (inactive)"}, {"measurement": "GI50", "setting": "[38]", "value": "> 100", "unit": "µM"}, {"measurement": "GI50", "setting": "[39]", "value": "> 100 µM (inactive)"}, {"measurement": "GI50", "setting": "[40]", "value": "> 100 µM (inactive)"}, {"measurement": "GI50", "setting": "[41]", "value": "> 100 µM (inactive)"}, {"measurement": "GI50", "setting": "[42]", "value": "> 100 µM (inactive)"}, {"measurement": "GI50", "setting": "[43]", "value": "> 100 µM (inactive)"}, {"measurement": "GI50", "setting": "[44]", "value": "> 100 µM (inactive)"}, {"measurement": "GI50", "setting": "[45]", "value": "> 100 µM (inactive)"}, {"measurement": "GI50", "setting": "[46]", "value": "> 100 µM (inactive)"}, {"measurement": "GI50", "setting": "[47]", "value": "> 100 µM (inactive)"}, {"measurement": "GI50", "setting": "[48]", "value": "> 100 µM (inactive)"}, {"measurement": "GI50", "setting": "[49]", "value": "> 100 µM (inactive)"}, {"measurement": "GI50", "setting": "[50]", "value": "> 100 µM (inactive)"}, {"measurement": "GI50", "setting": "[51]", "value": "> 100 µM (inactive)"}, {"measurement": "GI50", "setting": "[52]", "value": "> 100 µM (inactive)"}]}
